Test results from paper PMC5278707, “Structure-Activity Relationships of a Series of Echinocandins and the Discovery of CD101, a Highly Stable and Soluble Echinocandin with Distinctive Pharmacokinetic Properties” (Antimicrobial Agents and Chemotherapy, 2017).
≈ marks a conversion by molar mass, not a printed value. Read-outs that look alike come from different tables or passages of the source. One block for each compound: values may come before it.

Tests used:
Candida albicans R303 = test: mouse model of disseminated candidiasis, fungal burden in kidneys; type: in vivo; conditions: kidneys at 24 h; for fungal burden relative to limit of detection: neutropenic CD-1 mice, 0.5, 1.5 or 4.5 mg/kg
Procedure: Candida albicans R303 was grown on Sabouraud dextrose agar (SDA) plates for 24 h at 35°C. Colonies were transferred to phosphate-buffered saline (PBS) and diluted to 3.8 × 10^5 CFU/ml. Female CD-1 mice (Charles River Laboratories, Portage, MI) were rendered neutropenic via injection with cyclophosphamide (150 mg/kg) 5 days and 2 days prior to inoculation. Each animal was infected by injecting 0.1 ml of inoculum into the tail vein. In the treatment groups, animals received 0.5, 1.5, or 4.5 mg/kg of test article 2 h after inoculation. Two groups of untreated, infected controls were used to evaluate fungal burden: at 2 h when test articles were administered in the treatment groups and at 24 h when the treatment groups were sacrificed. Kidneys were harvested at 2 h in one untreated control group and at 24 h in all other groups. The kidneys were homogenized in 2 ml of sterile phosphate-buffered saline, and 0.1-ml aliquots were spread on SDA plates and incubated at 35°C overnight. Fungal burden was determined based on the log10 C. albicans CFU counts from paired kidneys. Data were analyzed using a one-way analysis of variance (ANOVA) and the Dunnett multiple comparisons test comparing the test articles to the infected control group (GraphPad InStat version 3.1; GraphPad Software, San Diego, CA).

[1] = single-dose pharmacokinetics in beagle dogs; conditions: male, beagle, dog, in vivo, iv, 1.4 mg/kg
Procedure: Four male, nonnaive beagle dogs received a single i.v. infusion (1.4 mg/kg) of test article over 10 min via a catheter placed in the cephalic vein. Blood draws (1.0 ml) were taken at 0.083, 0.33, 0.75, 1.5, 4.5, 12, 24, and 48 h. An additional blood draw at 72 h was obtained for CD101. Blood draws were taken from the jugular vein and were collected into K3 EDTA tubes. Following blood collection, the samples were immediately inverted several times and were held on wet ice pending centrifugation. The samples were centrifuged within ∼30 min of collection under refrigeration (∼5°C for ∼10 min at ∼2,000 g) to obtain plasma. The plasma samples were frozen immediately on dry ice after separation and were stored at approximately −70°C until analysis. Levels of test article in the plasma samples were measured by quantitative liquid chromatography-tandem mass spectrometry (LC-MS/MS) analysis compared to a calibration curve and an internal standard. Pharmacokinetic parameters were calculated from the plasma concentration-time data using standard noncompartmental methods and utilizing WinNonlin analysis software.

[2] = tested on: Aspergillus fumigatus ATCC 204305; test: CLSI broth microdilution (M38-A2) MEC/MIC; type: cell-based; conditions: Aspergillus fumigatus, ATCC204305, 48 h
Procedure: (§1) All yeast and mold isolates were obtained from the American Type Culture Collection (ATCC). Isolates were plated on an agar medium to verify purity, and single colonies were picked. Aspergillus isolates were resubcultured on potato dextrose slants and incubated for 7 days at 35°C. Candida isolates were streaked on SDA plates and incubated for 24 h at 35°C. RPMI 1640 medium (HyClone Laboratories, Logan, UT) and the inoculum for each organism were prepared according to Clinical and Laboratory Standards Institute (CLSI) guidelines ([27][–][29]). Stock solutions for all test articles were prepared in 100% dimethyl sulfoxide (DMSO). Susceptibility testing was performed using CLSI broth microdilution methods for Candida (M27-A3) and Aspergillus (M38-A2). Amphotericin B was tested at a range of 0.06 to 64 μg/ml; all other antifungal agents were tested at 0.015 to 16 μg/ml. Plates were incubated at 35°C and were read from the bottom using a plate viewer after 24 and 48 h for Candida and after 48 h for Aspergillus. MIC values are reported as the lowest drug concentration to yield a 50% reduction in the growth of Candida species tested compared to the control well. Minimum effective concentration (MEC) values are reported as the lowest drug concentration to yield the stunted hyphal growth of Aspergillus species tested compared to that of the control well.

[3] = tested on: Aspergillus ochraceus ATCC 96919; test: CLSI broth microdilution (M38-A2) MEC/MIC; type: cell-based; conditions: Aspergillus ochraceus, ATCC96919, 48 h
Procedure: as §1

[4] = tested on: Aspergillus niger ATCC 16888; test: CLSI broth microdilution (M38-A2) MEC/MIC; type: cell-based; conditions: Aspergillus niger, ATCC16888, 48 h
Procedure: as §1

[5] = tested on: Aspergillus candidus ATCC 13686; test: CLSI broth microdilution (M38-A2) MEC/MIC; type: cell-based; conditions: Aspergillus candidus, ATCC13686, 48 h
Procedure: as §1

[6] = tested on: Aspergillus flavus ATCC 22546; test: CLSI broth microdilution (M38-A2) MEC/MIC; type: cell-based; conditions: Aspergillus flavus, ATCC22546, 48 h
Procedure: as §1

[7] = tested on: Aspergillus fumigatus ATCC MYA-3626; test: CLSI broth microdilution (M38-A2) MEC/MIC; type: cell-based; conditions: Aspergillus fumigatus, 48 h
Procedure: as §1

[8] = tested on: Aspergillus clavatus ATCC 10058; test: CLSI broth microdilution (M38-A2) MEC/MIC; type: cell-based; conditions: Aspergillus clavatus, ATCC10058; read at 68 h
Procedure: as §1, with “Plates were incubated at 35°C and were read from the bottom using a plate viewer after 24 and 48 h for Candida and after 48 h for Aspergillus.” left out

[9] = tested on: Candida lusitaniae ATCC 34134; test: CLSI broth microdilution (M27-A3) MIC; type: cell-based; conditions: Clavispora lusitaniae, ATCC34134, 50% reduction in growth, read-out: MIC
Procedure: as §1

[10] = tested on: Candida parapsilosis ATCC 22019; test: CLSI broth microdilution (M27-A3) MIC; type: cell-based; conditions: Lodderomyces parapsilosis, ATCC22019, 50% reduction in growth
Procedure: as §1

[11] = tested on: Candida tropicalis ATCC 90874; test: CLSI broth microdilution (M27-A3) MIC; type: cell-based; conditions: 50% reduction in growth
Procedure: as §1

[12] = tested on: Candida guilliermondii ATCC 34134; test: CLSI broth microdilution (M27-A3) MIC; type: cell-based; conditions: Meyerozyma guilliermondii, ATCC34134, 50% reduction in growth
Procedure: as §1

[13] = tested on: Candida krusei ATCC 14243; test: CLSI broth microdilution (M27-A3) MIC; type: cell-based; conditions: Pichia kudriavzevii, ATCC14243, 50% reduction in growth
Procedure: as §1

[14] = tested on: Candida glabrata ATCC 90030; test: CLSI broth microdilution (M27-A3) MIC; type: cell-based; conditions: Nakaseomyces glabratus, ATCC90030, 50% reduction in growth, read-out: MIC
Procedure: as §1

[15] = tested on: Candida albicans ATCC 90028; test: CLSI broth microdilution (M27-A3) MIC; type: cell-based; conditions: 50% reduction in growth
Procedure: as §1

Vd [1]: 0.627 L/kg
half-life [1]: 33.7 h
Compound: CCCCCOc1ccc(-c2ccc(-c3ccc(C(=O)N[C@H]4C[C@@H](O)[C@@H](OCCOCCN)NC(=O)[C@@H]5[C@@H](O)[C@@H](C)CN5C(=O)[C@H]([C@@H](C)O)NC(=O)[C@H]([C@H](O)[C@@H](O)c5ccc(O)cc5)NC(=O)[C@@H]5C[C@@H](O)CN5C(=O)[C@H]([C@@H](C)O)NC4=O)cc3)cc2)cc1 [Compound 3]
fungal burden relative to limit of detection (Candida albicans R303): below the limit of detection for at least one of the doses

MIC [2]: 1 µg/mL (≈ 1.08 µM)
MIC [3]: 2 µg/mL (≈ 2.16 µM)
MIC [4]: 0.125 µg/mL (≈ 0.135 µM)
MIC [5]: ≤ 0.06 µg/mL
MIC [6]: 1 µg/mL (≈ 1.08 µM)
MIC [7]: 1 µg/mL (≈ 1.08 µM)
MIC [8]: ≤ 0.06 µg/mL
MIC ([9]; 24 h): ≤ 0.06 µg/mL
MIC ([9]; 48 h): ≤ 0.06 µg/mL
MIC ([10]; 24 h): 0.25 µg/mL (≈ 0.271 µM)
MIC ([10]; 48 h): 0.5 µg/mL (≈ 0.541 µM)
MIC ([11]; ATCC90874, 24 h): 0.25 µg/mL (≈ 0.271 µM)
MIC ([11]; ATCC90874, 48 h): 0.25 µg/mL (≈ 0.271 µM)
MIC ([12]; 24 h): ≤ 0.06 µg/mL
MIC ([12]; 48 h): ≤ 0.06 µg/mL
MIC ([13]; 24 h): 0.25 µg/mL (≈ 0.271 µM)
MIC ([13]; 48 h): 0.5 µg/mL (≈ 0.541 µM)
MIC ([14]; 24 h): 0.06 µg/mL (≈ 0.0649 µM)
MIC ([14]; 48 h): 0.25 µg/mL (≈ 0.271 µM)
MIC ([15]; ATCC90028, 24 h): ≤ 0.06 µg/mL
MIC ([15]; ATCC90028, 48 h): 0.125 µg/mL (≈ 0.135 µM)
Compound: C[C@@H]1[C@H](O)[C@@H](C)/C=C/C=C/C=C/C=C/C=C/C=C/C=C/[C@H](O[C@@H]2O[C@H](C)[C@@H](O)[C@H](N)[C@@H]2O)C[C@@H]2O[C@](O)(C[C@@H](O)C[C@@H](O)[C@H](O)CC[C@@H](O)C[C@@H](O)CC(=O)O[C@H]1C)C[C@H](O)[C@H]2C(=O)O [Amphotericin B, amphotericin B]

Vd [1]: 0.361 L/kg
half-life [1]: 28.9 h
Compound: CCCCCOc1ccc(-c2ccc(-c3ccc(C(=O)N[C@H]4C[C@@H](O)[C@@H](OCCOCCO)NC(=O)[C@@H]5[C@@H](O)[C@@H](C)CN5C(=O)[C@H]([C@@H](C)O)NC(=O)[C@H]([C@H](O)[C@@H](O)c5ccc(O)cc5)NC(=O)[C@@H]5C[C@@H](O)CN5C(=O)[C@H]([C@@H](C)O)NC4=O)cc3)cc2)cc1 [Compound 4]
reductions in fungal burden vs infected control (statistical significance) (Candida albicans R303; neutropenic CD-1 mice, 0.5, 1.5 or 4.5 mg/kg 2 h after inoculation): statistically significant (P < 0.01) reductions in fungal burden at all doses
fungal burden relative to limit of detection (Candida albicans R303): below the limit of detection for at least one of the doses
